In ChEMBL document CHEMBL1201862, “PubChem BioAssay data set” (2004):
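Results reflect a 48-hour exposure of cells in 96-well plates to compound at five concentrations. At the GI50, growth is halved.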 Active and inactive are the calls of the source. Rule as the data show it: active = GI50 up to about 1.1 µM and inactive = higher.

Legend:
Experiment in all cases: growth of human tumour cells (NCI), 48 h
OVCAR-5 = system: OVCAR-5
HCT-15 = system: HCT-15
NCI-H226 = system: NCI-H226
M14 = system: M14
NCI/ADR-RES = system: NCI/ADR-RES
HCC 2998 = system: HCC 2998
TK-10 = system: TK-10
MDA-MB-435 = system: MDA-MB-435
SNB-75 = system: SNB-75
T47D = system: T47D
MDA-N = system: MDA-N
UO-31 = system: UO-31
RPMI-8226 = system: RPMI-8226
MDA-MB-231 = system: MDA-MB-231
SR = system: SR
MOLT-4 = system: MOLT-4
COLO 205 = system: COLO 205
SW-620 = system: SW-620
OVCAR-4 = system: OVCAR-4
DU-145 = system: DU-145

Row | SMILES | GI50 (OVCAR-5) | GI50 (HCT-15) | GI50 (NCI-H226) | GI50 (M14) | GI50 (NCI/ADR-RES) | GI50 (HCC 2998) | GI50 (TK-10) | GI50 (MDA-MB-435) | GI50 (SNB-75) | GI50 (T47D) | GI50 (MDA-N) | GI50 (UO-31) | GI50 (RPMI-8226) | GI50 (MDA-MB-231) | GI50 (SR) | GI50 (MOLT-4) | GI50 (COLO 205) | GI50 (SW-620) | GI50 (OVCAR-4) | GI50 (DU-145)
1 | C=C1C2CC[C@@](C)(O)C2[C@H]2OC(=O)C(=C)[C@@H]2C[C@H]1O (stereo not given in full) | 29 µM (inactive) | 16.7 µM | 18 µM (inactive) | 13.8 µM (inactive) | 18.8 µM (inactive) | 19.1 µM (inactive) | 14.9 µM (inactive) | 26 µM (inactive) | 43.4 µM (inactive) | 17.8 µM (inactive) | 24.5 µM (inactive) | 13.6 µM (inactive) | 13.1 µM (inactive) | 18.8 µM (inactive) | 17.1 µM (inactive) | 14.7 µM (inactive) | 15 µM (inactive) | 29.7 µM (inactive) | 14.9 µM (inactive) | 15.5 µM (inactive)
2 | C=C1C(=O)OC2C1CCC(=C)C1CC(O)C(=C)C12 (stereo not given) | 11.5 µM (inactive) | 10.8 µM | 27.1 µM (inactive) | 17.5 µM (inactive) | 24 µM (inactive) | 14.3 µM (inactive) | 8.02 µM (inactive) | 19.5 µM (inactive) | 19.7 µM (inactive) | 20.7 µM (inactive) | 11 µM (inactive) | 15.3 µM (inactive) | 5.78 µM (inactive) | 16.3 µM (inactive) | 3.22 µM (inactive) | 8.38 µM (inactive) | 2.55 µM (inactive) | 16 µM (inactive) | 16.2 µM (inactive) | 15 µM (inactive)
3 | O=C(CCCCCCCCC(=O)N1C(=O)CC(=O)N(c2ccc(Cl)cc2)C1=S)N1C(=O)CC(=O)N(c2ccc(Cl)cc2)C1=S | > 100 µM (inactive) | 35.6 µM | > 100 µM (inactive) | 38.5 µM (inactive) | 24.5 µM (inactive) | 38.9 µM (inactive) | > 100 µM (inactive) | 58.1 µM (inactive) | > 100 µM (inactive) | 33.3 µM (inactive) | 38.6 µM (inactive) | 35.7 µM (inactive) | 30.6 µM (inactive) | 70.8 µM (inactive) | 8.93 µM (inactive) | 19.8 µM (inactive) | 32.9 µM (inactive) | > 100 µM (inactive) | 41.6 µM (inactive) | > 100 µM (inactive)
4 | C[n+]1c(-c2ccc(/C=N/NC(=O)c3ccc(C(=O)N/N=C/c4ccc(-c5cn6ccccc6[n+]5C)cc4)cc3)cc2)cn2ccccc21 | > 100 µM (inactive) | > 100 µM | > 100 µM (inactive) | 98.6 µM (inactive) | > 100 µM (inactive) | > 100 µM (inactive) | > 83.4 µM (inactive) | > 75.7 µM (inactive) | > 100 µM (inactive) | > 100 µM (inactive) | > 70 µM (inactive) | > 59.8 µM (inactive) | > 100 µM (inactive) | > 74.3 µM (inactive) | > 100 µM (inactive) | > 100 µM (inactive) | > 100 µM (inactive) | > 100 µM (inactive) | > 100 µM (inactive) | > 100 µM (inactive)
